The numbers were not newly measured in patent US20130079416A1 (BOIRON, priority 2010, published 2013), which cites them from elsewhere.

Read-outs that look alike come from different tables or passages of the source.

For series [1] the following is noted: rat, oral, multiple doses; methemoglobinemia-carboxyhaemoglobin, changes in blood cell and erythrocyte count.
The conditions of series [2]: rats, long time and very high doses, alone or in combination with phenazone (Johansson, 1981).
The conditions of series [3]: human.

With `CCOc1ccc(NC(C)=O)cc1` [phenacetin, N-(4-ethoxyphenyl)acetamide], the “Lowest toxic dose (TDL0)” value was 10 mg/kg/ mg/kg/4 weeks (intermittent) in series [1]; 74 mg/kg in series [3] (acute, route not indicated); 80 mg/kg/63 mg/kg/63 years (intermittent) in series [3] (oral, multiple doses, tumorigenic-carcinogenic according to RTECS criteria, renal tumours). The “Incidence of renal tumours” value in series [2] is recorded as “slightly increases the incidence of renal tumours”.
